Reference: US4168206A, “Impregnated disk method for testing antifungal susceptibility” (Philadelphia College of Osteopathic Medicine, priority 1977, dated 1979)
Values after ≈ are worked out from the molar mass of the structure shown. Like-named read-outs stand apart in the source and are kept apart here.

What was measured:
Cryptococcus neoformans = assay: MIC by broth dilution method, Cryptococcus neoformans; assay type: cell-based; conditions: Cryptococcus neoformans
Text: The preparation of the nutrient media, the antifungal agents and the fungi to be tested in the present invention are similar to those reported in S. Shadomy and A. Espinel-Ingroff, "Susceptibility Testing Of Antifungal Agents", Ch. 63, pp. 569-574 in E. H. Lennett, E. H. Spaulding, and J. P. Truant, Eds., Manual Of Clinical Microbiology, 2nd Ed., American Society for Microbiology, Washington, D.C. (1974). This publication describes the susceptibility testing of antifungal agents, namely, amphotericin B, nystatin and 5-fluoro-cytosine (5-FC), by the "broth dilution method" and the "semisolid agar dilution method". At pages 570-571, it is stated:
(§1) In 10 duplicate runs with each strain tested, the variation in minimum inhibitory concentration averaged ±0.05 μg/ml.
*Broth dilution method conducted in accordance with S. Shadomy and E.
Espinel-Ingroff, "Susceptibility Testing of Antifungal Agents", Ch. 63,
pp. 569-574 in E. H. Spaulding and J. P. Truant, Eds., Manual Of Clinical
Microbiology, 2nd Ed., American Society for Microbiology, Washington, […]

Candida albicans = assay: MIC by impregnated disk method, Candida albicans; assay type: cell-based; conditions: Candida albicans
Description: Stock solutions of the antifungal agents to be tested are preferably prepared by diluting the antifungal agents in the proper nutrient medium. It is presently preferred to prepare dilutions in 10 ml of the proper medium to give the following final concentrations when applied to the disks (all quantities in micrograms per milliliter): 0.05, 0.08, 0.09, 0.1; 0.1 increment increases to 0.9, 1.0; 0.5 increment increases to 10.0; and 12.0, 14.0, 20.0, 25.0 and 50.0. Disks have been prepared by placing 0.05 ml of the above dilutions of antifungal agent containing medium on 6.5 mm diameter disks in 0.01 or 0.02 ml increments. The impregnated disks are then allowed to dry at a temperature preferably below about 10° C. […] The disks may also be dried by a lyophilization or freeze drying process.
To perform the tests in accordance with the present inventions, disks impregnated with various concentrations of antifungal agent and nutrient medium and a control disk impregnated only with the corresponding nutrient medium are placed on the fungus to be tested which has been applied to the non-nutrient medium. The disks are the inoculated non-nutrient medium are then incubated at a suitable temperature for a sufficient time to promote growth of the fungus. Any temperature is suitable if it will promote growth of the fungus without adversely affecting the fungus or the activity of the antifungal agent or agents tested. The time of incubation can be determined by observing the extent of growth around the control disk. […] The zones of growth or inhibition around the disks were read at 6, 12, 24, 36 and 48 hours after the disks were placed on the tested fungus.
The minimum inhibitory concentration is defined as the lowest concentration of antifungal agent which inhibits visible growth. The disks containing concentrations of antifungal agents below the minimum inhibitory concentration show circumscribed growth of the fungus around the disk. Disks containing concentrations of antifungal agent at or above the minimum inhibitory concentration show no circumscribed growth.
Clinical isolates of various fungi listed in Table 1 were obtained from different patients diagnosed as having fungal infections. The fungal inocula were prepared by using a 24-48 hour cultures grown in yeast nitrogen base containing 1% glucose and 0.15% asparagine. After centrifuging, the supernatant was removed, the sedimented cells were washed twice with sterile distilled water and a cell suspension was adjusted to 80% transmission at 520 nm using a Beckman DB-GT grating spectrophotometer.
Sterile liquified 2% purified agar was placed in petri dishes and allowed to harden. The surface of the agar was inoculated with a sterile cotton swab saturated with a suspension of an organism. The uniformly swabbed plates were then allowed to dry.
Disks were prepared using the dilutions described above for amphotericin B, nystatin and 5-fluorocytosine. 0.05 ml of the dilutions of each antifungal agent diluted with the appropriate nutrient medium were pipetted on 6.5 mm diameter disks. The disks were dried at 4° C. after each application. Control disks were also prepared.
Several test disks and a control disk were placed in each petri dish containing the inoculated agar. The disks and petri dishes were then incubated at 29° C. and the minimum inhibitory concentration of the various concentrations of the antifungal agents were read at 6, 12, 24, 36 and 48 hours.
as §1

Molecule `C[C@@H]1[C@H](O)[C@@H](C)/C=C/C=C/C=C/C=C/C=C/C=C/C=C/[C@H](O[C@@H]2O[C@H](C)[C@@H](O)[C@H](N)[C@@H]2O)C[C@@H]2O[C@](O)(C[C@@H](O)C[C@@H](O)[C@H](O)CC[C@@H](O)C[C@@H](O)CC(=O)O[C@H]1C)C[C@H](O)[C@H]2C(=O)O` [Amphotericin B, amphotericin B] has an MIC (Cryptococcus neoformans; read-out: Minimum Inhibitory Concentration, Broth, C. neoformans isolate 2) of 0.4 µg/mL (≈ 0.433 µM), an MIC (Cryptococcus neoformans; read-out: Minimum Inhibitory Concentration, Broth, C. neoformans isolate 3) of 0.5 µg/mL (≈ 0.541 µM) and an MIC (Cryptococcus neoformans; read-out: Minimum Inhibitory Concentration, Broth, Cryptococcus neoformans isolate 1) of 0.5 µg/mL (≈ 0.541 µM). It also gave an MIC (Candida albicans; isolate 1, read-out: Minimum Inhibitory Concentration, Disk) of 0.3 µg/mL (≈ 0.325 µM), an MIC (Candida albicans; isolate 2, read-out: Minimum Inhibitory Concentration, Disk) of 0.6 µg/mL (≈ 0.649 µM) and an MIC (Candida albicans; isolate 3, read-out: Minimum Inhibitory Concentration, Disk) of 0.08 µg/mL (≈ 0.0866 µM). It also gave an MIC (Candida albicans; isolate 4, read-out: Minimum Inhibitory Concentration, Disk) of 0.6 µg/mL (≈ 0.649 µM), an MIC (Candida albicans; isolate 5, read-out: Minimum Inhibitory Concentration, Disk) of 0.9 µg/mL (≈ 0.974 µM) and an MIC (Candida albicans; isolate 6, read-out: Minimum Inhibitory Concentration, Disk) of 1 µg/mL (≈ 1.08 µM).
